Measurements reported in PubChem BioAssay AID256 (DTP/NCI, 2004).
Values joined by “and” are separate entries in the source; they are usually repeats but may differ in a detail not shown here. Equal entries are not always repeated. Toxic doses and inconclusive results are not listed. The calls were made as follows: active = survival T/C of 150% or more; inactive = T/C below 125% in these data.

Tested on: CD2F1 mice, L1210 leukemia ip, survival T/C
Assay: NCI In Vivo Anticancer Drug Screen. Data for tumor model L1210 Leukemia (intraperitoneal) in CD2F1 (CDF1) mice
Conditions: higher = longer survival
Procedure, shortened: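 Transplantable tumor in mice; compound-treated vs vehicle-treated groups. Read-out = treated/control ratio of the measured endpoint.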

[1] = endpoint: mean survival time, dose: 100.0 mg/kg/injection, schedule: Q04DX003 (ip), vehicle: saline with Tween-80

Measured: T/C

OC(c1ccccc1)(c1ccccc1)c1ccccc1C(O)(c1ccccc1)c1ccccc1
inactive: endpoint: mean survival time, dose: 100.0 mg/kg/injection, schedule: Q01DX001 (ip), vehicle: Klucel (hydroxypropylcellulose) (HPC) 90 % of control | endpoint: mean survival time, dose: 200.0 mg/kg/injection, schedule: Q01DX001 (ip), vehicle: Klucel (hydroxypropylcellulose) (HPC) 90 % of control

CC1(c2cc(F)cc3ccccc23)OC(=O)c2ccccc21 (configuration not stated)
inactive: endpoint: median survival time, dose: 25.0 mg/kg/injection, schedule: Q04DX003 (ip), vehicle: saline with Tween-80 100 % of control | endpoint: median survival time, dose: 50.0 mg/kg/injection, schedule: Q04DX003 (ip), vehicle: saline with Tween-80 100 % of control | endpoint: median survival time, dose: 100.0 mg/kg/injection, schedule: Q04DX003 (ip), vehicle: saline with Tween-80 100 % of control | endpoint: median survival time, dose: 200.0 mg/kg/injection, schedule: Q04DX003 (ip), vehicle: saline with Tween-80 100 % of control

COc1ccc(OC)c(C2=CCCCCC2)c1
inactive: [1] 101 % of control | endpoint: mean survival time, dose: 200.0 mg/kg/injection, schedule: Q04DX003 (ip), vehicle: saline with Tween-80 102 % of control | endpoint: mean survival time, dose: 400.0 mg/kg/injection, schedule: Q04DX003 (ip), vehicle: saline with Tween-80 90 % of control

CC(=O)Nc1nn(C)c(C#N)c1C#N
inactive: endpoint: mean survival time, dose: 37.5 mg/kg/injection, schedule: Q04DX002 (ip), vehicle: saline with Tween-80 106 % of control | endpoint: mean survival time, dose: 75.0 mg/kg/injection, schedule: Q04DX002 (ip), vehicle: saline with Tween-80 106 % of control | endpoint: mean survival time, dose: 150.0 mg/kg/injection, schedule: Q04DX002 (ip), vehicle: saline with Tween-80 102 % of control

Cc1ccccc1NCc1ccccc1
inactive: endpoint: mean survival time, dose: 100.0 mg/kg/injection, schedule: Q04DX003 (ip), vehicle: other 101 % of control | endpoint: mean survival time, dose: 200.0 mg/kg/injection, schedule: Q04DX003 (ip), vehicle: other 103 % of control | endpoint: mean survival time, dose: 400.0 mg/kg/injection, schedule: Q04DX003 (ip), vehicle: other 100 % of control

O/N=c1/ccn(O)c2ccccc12
inactive: endpoint: mean survival time, dose: 0.25 mg/kg/injection, schedule: Q03HX024 (ip), vehicle: saline 104 % of control | endpoint: mean survival time, dose: 0.5 mg/kg/injection, schedule: Q03HX008 (ip), vehicle: saline 112 % of control | endpoint: mean survival time, dose: 0.5 mg/kg/injection, schedule: Q03HX016 (ip), vehicle: saline 104 % of control | endpoint: mean survival time, dose: 0.5 mg/kg/injection, schedule: Q03HX024 (ip), vehicle: saline 116 % of control | endpoint: mean survival time, dose: 1.0 mg/kg/injection, schedule: Q01DX009 (ip), vehicle: saline 123 % of control | endpoint: mean survival time, dose: 1.0 mg/kg/injection, schedule: Q03HX008 (ip), vehicle: saline 113 % of control | endpoint: mean survival time, dose: 1.0 mg/kg/injection, schedule: Q03HX016 (ip), vehicle: saline 113 % of control | endpoint: mean survival time, dose: 2.0 mg/kg/injection, schedule: Q03HX024 (ip), vehicle: saline 123 % of control | endpoint: mean survival time, dose: 16.0 mg/kg/injection, schedule: Q01DX001 (ip), vehicle: saline 124 % of control | endpoint: mean survival time, dose: 16.0 mg/kg/injection, schedule: Q04DX003 (ip), vehicle: saline 96 % of control | endpoint: mean survival time, dose: 16.0 mg/kg/injection, schedule: Q08DX002 (ip), vehicle: saline 109 % of control | endpoint: mean survival time, dose: 32.0 mg/kg/injection, schedule: Q08DX002 (ip), vehicle: saline 88 % of control

O=C(CCl)c1cccnc1C(=O)O
inactive: [1] 98 % of control

CC(=O)OCCC/C(=C/c1c[nH]c2ccccc12)[N+](=O)[O-]
inactive: endpoint: mean survival time, dose: 100.0 mg/kg/injection, schedule: Q01DX001 (ip), vehicle: saline 97 % of control | endpoint: mean survival time, dose: 200.0 mg/kg/injection, schedule: Q01DX001 (ip), vehicle: saline 102 % of control | endpoint: mean survival time, dose: 400.0 mg/kg/injection, schedule: Q01DX001 (ip), vehicle: saline 109 % of control

O=C(O)C1CCC(C(=O)O)CC1.[NH-]C1CCCCC1[NH-].[Pt+2] (configuration not stated)
active: endpoint: median survival time, dose: 25.0 mg/kg/injection, schedule: Q04DX003 (ip), vehicle: saline 168 % of control | endpoint: median survival time, dose: 50.0 mg/kg/injection, schedule: Q04DX003 (ip), vehicle: saline 207 % of control and 237 % of control | endpoint: median survival time, dose: 100.0 mg/kg/injection, schedule: Q04DX003 (ip), vehicle: saline 287 % of control and 365 % of control
inactive: endpoint: median survival time, dose: 3.12 mg/kg/injection, schedule: Q04DX003 (ip), vehicle: saline 123 % of control and 112 % of control | endpoint: median survival time, dose: 6.25 mg/kg/injection, schedule: Q04DX003 (ip), vehicle: saline 122 % of control | endpoint: median survival time, dose: 200.0 mg/kg/injection, schedule: Q04DX003 (ip), vehicle: saline 87 % of control and 89 % of control

Nc1nc(NNC(=O)CCCO)c2nonc2n1
inactive: endpoint: mean survival time, dose: 9.4 mg/kg/injection, schedule: Q01DX005 (ip), vehicle: other 97 % of control | endpoint: mean survival time, dose: 18.8 mg/kg/injection, schedule: Q01DX005 (ip), vehicle: other 109 % of control | endpoint: mean survival time, dose: 37.5 mg/kg/injection, schedule: Q01DX005 (ip), vehicle: other 105 % of control | endpoint: mean survival time, dose: 75.0 mg/kg/injection, schedule: Q01DX005 (ip), vehicle: other 105 % of control | endpoint: mean survival time, dose: 150.0 mg/kg/injection, schedule: Q01DX005 (ip), vehicle: other 105 % of control
